Experiments:
FABP5 = FABP5 (Homo sapiens, UniProt Q01469); experiment: TdCD (Temperature-Dependent Circular Dichroism) assay for FABP5; assay type: binding; conditions: compounds at 50 μM and 25 μM; Kd calculated at T=20° C.; 50% uncertainty
From the text: [formula] (see Brandts et al and Mayhood et al, shown above) where ΔHL (T) is the van't Hoff enthalpy of ligand binding at temperature T and ΔCpL is the heat capacity upon ligand binding. For simplicity, the ΔCpL and ΔHL (T) were set to zero and −7 kcal/mol respectively. (The ΔCpL accounts for minimal portion of total protein-ligand binding energetics and is therefore set to zero (For example, see Hossein Naghibi et al, Proc. Natl. Acad. Sci. 92, 5597-5599 (1995), where ΔCpL was estimated to ˜2% of ΔHL at 25° C. obtained from calorimetric study of binding Rnase A and 2′-CMP)). TdCD (Temperature-Dependent Circular Dichroism) Assay for FABP3/4/5
JASCO 810 spectropolarimeter was used to measure Circular Dichroism (CD) spectra and temperature-dependent protein unfolding profiles. The instrument is equipped with a 6-cell piezoelectric temperature controller. Ellipticity was monitored at 226 nm as a function of temperature with a 1 mm path length cell. The scan rate was 1° C./min with a 4 s response time and 30 s equilibration between measurements.
Stock protein FABP5 (3.5 mgs/mL), FABP4 (1.8 mgs/mL) and FABP3 (3 mgs/mL) were diluted to 10-15 μM with 25 mM HEPES pH 7.5, 150 mM NaCl, 1 mM DTT. 10 mM stocks of individual compounds were made in 100% DMSO. The compounds were tested at 50 μM and 25 μM concentrations. DMSO was added to protein-alone (apo) samples to 1% to compensate for DMSO amounts in protein+ligand samples. Data were analyzed using Jasco software and the midpoints of the protein unfolding Transitions™, and the ligand binding constants (KL) were calculated as previously described (See, for example, Mayhood et al, Analytical Biochemistry 345 (2005) 187-197; Smith et al, Biochemistry 46 (2007) 1358-1367; Brandts et al, Biochemistry 29 (1990) 6927-6940; and Matulis et al, Biochemistry 44 (2005) 5258-5266).
Briefly, the To (midpoint of unfolding for the unliganded protein) was calculated from best fit of the unfolding data to the equation below:
[formula] Where, Yobs is the observed ellipticity value at any temperature T, Yn and Yu are the predicted ellipticity values for fully folded and unfolded species, respectively, mn and mu are slope correction for changes in Yn and Yu with respect to changes in temperature. To is the midpoint temperature at which the unliganded protein unfolds and ΔHu and ΔCpu are the heat of unfolding and heat capacity of unfolding, respectively for the unliganded species.
In presence of ligand, the midpoint Temperature™ defines where the equilibrium concentrations of unfolded and folded species are equal. Incorporation of the unliganded free energy of binding and subsequent thermodynamic substitution yielded the binding constant of the ligand at the Tm value of unfolding:
[formula] where, T0 is the midpoint of unfolding for unliganded protein and Tm is the midpoint of unfolding in presence of ligand. [LTm] is free ligand at Tm.
Based on estimates for enthalpy of binding, ΔHL (estimated to be −7 kcal/mol) and ligand binding heat capacity ΔCpL (set to be zero), the ligand binding association constant (KL) at temperature T=20° C. were calculated as below. Based on reasonable boundary change of the estimated ligand binding ΔHL, a 50% uncertainty was uniformly assigned to the calculated TdCD Kd (1/KL) values at T=20° C.

FABP4 = FABP4 (Homo sapiens, UniProt P15090); experiment: TdF (Temperature Dependence Fluorescence) thermal shift assay for FABP4; assay type: binding; conditions: 3 μM protein; 15, 50 or 100 μM compound; Kd from ΔTm
Sequence of FABP4 (P15090 whole entry): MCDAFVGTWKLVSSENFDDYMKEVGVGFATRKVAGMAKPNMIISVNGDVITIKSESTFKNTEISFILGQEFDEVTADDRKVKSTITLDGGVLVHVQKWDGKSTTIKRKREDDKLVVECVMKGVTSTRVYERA
From the text: TdF (Temperature Dependence Fluorescence) Assay for FABP3 and FABP4
The SAR (Structure Activity Relationship) for FABP3 and FABP4 ligands covered by this invention was interrogated using the TdF (Temperature Dependence Fluorescence) assay or best known as thermal shift assay (M. W. Pantoliana et al, J. Biomol. Screen 6 (2001) 429-440). The TdF assay was mainly conducted in the 96-well based CHROMO-4 real time fluorescence plate reader (BioRad). The Sypro Orange (Sigma-Aldrich), environmentally sensitive fluorescence dye, was used to monitor the protein folding-unfolding transition. Protein-ligand binding was gauged by the change (or shift) in the unfolding transition temperature (ΔTm) acquired at protein alone with respect to protein in the presence of ligand of interest.
The compound of interest was first prepared in DMSO stock (typical concentration: 10 mM). Sample of 20 μL was then added into the 96-well PCR plate, where it consisted of 3 μM protein (FABP4 or FABP3) and 15, 50 or 100 μM compound (depending on compound's solubility) in buffer (25 mM HEPES, 150 mM NaCl, pH=7.5 and 1 mM DTT) incorporated with Sypro Orange dye (5× final concentration). Final percentage of DMSO resided in the sample was 2%. The sample plate was heated from 30° C. to 90° C. with thermal ramping rate of 1° C./min. The fluorescence signals were acquired with excitation and emission wavelengths centered at 490 and 560 nm respectively. The instrument thermal stability was ±0.2° C. The melting Temperatures™ for FABP4 and FABP3 proteins under aforementioned conditions occurred at 61.0±0.2° C. and 64.8±0.2° C. respectively.
Theoretical Basis for TdF-Based Ligand Binding Affinity Constant
The derivation of TdF-based ligand binding affinity constant (Kd) followed closely those previously formulated by Brandts and Lin, Biochemistry 29 (1990) 6927-6940. In brief, the binding constant of the ligand at the Tm is expressed as below:
[formula] where T0 is the midpoint of unfolding for unliganded protein and Tm is the midpoint of unfolding in presence of ligand. [LTm] is free ligand at Tm. The ΔHu and ΔCpu are the enthalpy of unfolding and heat capacity change of unfolding for the protein respectively. The ΔCPu is proportional to the size of protein and is an approximate quantity in the above equation (empirically, ΔCpu=(MW of protein/115)*14 cal/mol*K). Following algorithm derived by Mayhood et al, (Analytical Biochemistry 345 (2005) 187-197), the T0 and ΔHu can be determined separately from nonlinear regression fitting the temperature dependent protein alone curve to the following equation: […]
Where F(T) is the observed fluorescence intensity at any temperature T, Yn and Yu are the predicted fluorescence intensities for fully folded and unfolded protein, respectively; mn and mu are slope correction for changes in Yn and Yu with respect to changes in temperature (analogously replace T0 with Tm in the above equation for liganded protein to yield Tm). The nonlinear regression fitting in general readily reaches convergence by properly constraining the initial values for the fitting parameters (e.g. the initial “guess” for the ΔHu was constrained to 120 kcal/mol; initial Yn and mn were set to 1 and zero to best represent the melting curve along the low temperature region; negative slope of −0.5 was initially chosen for mu; initial Tm was also constrained to 50° C.).
Finally, the ligand binding affinity constant at any temperature T 25° C.) can be thermodynamically connected to the preceding KL™ via
[formula] (see Brandts et al and Mayhood et al, shown above) where ΔHL (T) is the van't Hoff enthalpy of ligand binding at temperature T and ΔCpL is the heat capacity upon ligand binding. For simplicity, the ΔCpL and ΔHL (T) were set to zero and −7 kcal/mol respectively. […]

Sequence of FABP5 (Q01469 whole entry): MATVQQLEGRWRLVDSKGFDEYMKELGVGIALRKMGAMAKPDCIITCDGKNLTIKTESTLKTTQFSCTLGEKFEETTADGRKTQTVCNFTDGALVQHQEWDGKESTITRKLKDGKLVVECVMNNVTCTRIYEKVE

Kd (FABP5)	Kd (FABP4)	SMILES
500 to 100000 nM	200 to 5000 nM	CN(Cc1ccc(C(F)(F)F)cc1)Cc1cc(=O)n2nc(-c3ccccc3)nc2[nH]1 [1-53]
500 to 100000 nM	200 to 5000 nM	O=c1cc(COC(c2ccccc2)C2CC2)[nH]c2nc(-c3ccccc3)nn12 (stereo not shown) [1-116]
500 to 100000 nM	1 to 200 nM	CC(OCc1cc(=O)n2nc(-c3ccccc3)nc2[nH]1)c1ccccc1Cl (stereo not shown) [1-117]
500 to 100000 nM	1 to 200 nM	O=c1cc(COCC2(c3cccc(F)c3)CC2)[nH]c2nc(-c3ccccc3)nn12 [1-119]
500 to 100000 nM	1 to 200 nM	CC(C)(Cc1ccccc1)OCc1cc(=O)n2nc(-c3ccccc3)nc2[nH]1 [1-120]
500 to 100000 nM	1 to 200 nM	CCC(OCc1cc(=O)n2nc(-c3ccccc3)nc2[nH]1)C1CCCCC1 (stereo not shown) [1-121]
500 to 100000 nM	> 5000 nM	CCC[C@H](OCc1cc(=O)n2nc(-c3ccccc3)nc2[nH]1)c1ccccc1 [1-122]
500 to 100000 nM	> 5000 nM	CC[C@H](OCc1cc(=O)n2nc(-c3ccccc3)nc2[nH]1)c1ccccc1 [1-123]
500 to 100000 nM	1 to 200 nM	CC(OCc1cc(=O)n2nc(-c3ccccc3)nc2[nH]1)C1CCCCC1 (stereo not shown) [1-124]
500 to 100000 nM	1 to 200 nM	O=c1cc(COCC2CCCCC2)[nH]c2nc(-c3ccccc3)nn12 [1-125]
500 to 100000 nM	200 to 5000 nM	O=c1cc(COC(CC2CC2)c2ccccc2)[nH]c2nc(-c3ccccc3)nn12 (stereo not shown) [1-126]
500 to 100000 nM	200 to 5000 nM	O=c1cc(COCc2cccnc2F)[nH]c2nc(-c3ccccc3)nn12 [1-127]
500 to 100000 nM	200 to 5000 nM	O=c1cc(COCc2cccnc2Cl)[nH]c2nc(-c3ccccc3)nn12 [1-128]
500 to 100000 nM	1 to 200 nM	O=c1cc(COCC2(c3cccc(C(F)(F)F)c3)CC2)[nH]c2nc(-c3ccccc3)nn12 [1-129]
500 to 100000 nM	1 to 200 nM	C=CCC(OCc1cc(=O)n2nc(-c3ccccc3)nc2[nH]1)c1ccccc1Cl (stereo not shown) [1-130]
500 to 100000 nM	200 to 5000 nM	CC(OCc1cc(=O)n2nc(-c3ccccc3)nc2[nH]1)c1ccccc1F (stereo not shown) [1-132]

Kd (FABP5)	Kd (FABP4)	SMILES
500 to 100000 nM	200 to 5000 nM	O=C(O)c1cccc(COCc2cc(=O)n3nc(-c4ccccc4)nc3[nH]2)c1 [1-133]
500 to 100000 nM	200 to 5000 nM	O=c1cc(CNC2(c3cccc(C(F)(F)F)c3)CC2)[nH]c2nc(-c3ccccc3)nn12 [1-137]
500 to 100000 nM	200 to 5000 nM	O=c1cc(CNCC2(c3cccc(C(F)(F)F)c3)CC2)[nH]c2nc(-c3ccccc3)nn12 [1-138]
500 to 100000 nM	> 5000 nM	O=c1cc(COCc2ccccc2C(F)(F)F)[nH]c2nc(-c3ccccc3)nn12 [1-140]
500 to 100000 nM	200 to 5000 nM	O=c1cc(COCc2ccccc2)[nH]c2nc(-c3ccccc3)nn12 [1-144]
500 to 100000 nM	200 to 5000 nM	O=c1cc(COCc2cccc(Cl)c2Cl)[nH]c2nc(-c3ccccc3)nn12 [1-145]
500 to 100000 nM	1 to 200 nM	CCC(OCc1cc(=O)n2nc(-c3ccccc3)nc2[nH]1)c1ccccc1Cl (stereo not shown) [1-153]
500 to 100000 nM	1 to 200 nM	O=c1cc(COCc2ccccc2Cl)[nH]c2nc(-c3ccccc3)nn12 [1-154]
500 to 100000 nM	1 to 200 nM	Cc1c(Cl)cccc1OC(C)(C)COCc1cc(=O)n2nc(-c3ccccc3)nc2[nH]1 [27-3]
500 to 100000 nM	1 to 200 nM	Cc1ccccc1OC(C)(C)COCc1cc(=O)n2nc(-c3ccccc3)nc2[nH]1 [27-4]
500 to 100000 nM	> 5000 nM	O=c1cc(COCC(O)c2ccccc2Cl)[nH]c2nc(-c3ccccc3)nn12 (stereo not shown) [34-1]
500 to 100000 nM	> 5000 nM	O=c1cc(COC(CO)c2ccccc2Cl)[nH]c2nc(-c3ccccc3)nn12 (stereo not shown) [34-2]
500 to 100000 nM	> 5000 nM	CC(Cc1cc(=O)n2nc(-c3ccccc3)nc2[nH]1)(Oc1cccc(Cl)c1)C(=O)O (stereo not shown) [35-4]
500 to 100000 nM	1 to 200 nM	CC(Cc1cc(=O)n2nc(-c3ccccc3)nc2[nH]1)(Oc1cccc(Cl)c1)C(=O)NCC1(c2ccccc2Cl)CC1 (stereo not shown) [35-5]
500 to 100000 nM	1 to 200 nM	COC(C)(Cc1cc(=O)n2nc(-c3ccccc3)nc2[nH]1)C(=O)NCC1(c2ccc(Cl)cc2)CCC1 (stereo not shown) [36-2]
500 to 100000 nM	1 to 200 nM	[2H]C([2H])([2H])OC(C(=O)NCC1(c2ccc(Cl)cc2)CCC1)(C([2H])([2H])[2H])C([2H])([2H])c1cc(=O)n2nc(-c3ccccc3)nc2[nH]1 (stereo not shown) [37-2]

Source: patent US8759357B2, “Inhibitors of fatty acid binding protein (FABP)” (Merck Sharp & Dohme Corp., priority 2009, dated 2014)
